Test results as given in US7994141B2, “Compositions comprising compounds of natural origin for damaged skin” (Biospectrum, Inc., priority 2006, dated 2011).

How the values were obtained:
Conditions in all cases: individual compound of natural origin
[1] = Determination of antioxidant activity (DPPH method); type: biochemical
Experimental: DPPH (1,1-diphenyl-2-picrylhydrazyl) is a chromogenic radical and thus, can be used to directly confirm the radical scavenging activity of the samples. The samples were dissolved in 4 ml of distilled water or solvent (methanol) and then, mixed well with 1 ml of 100 μM DPPH. Subsequently, the samples were incubated at room temperature for 30 minutes. The absorbance of the remaining DPPH was measured at 517 nm. As a blank of the present experiment, distilled water or solvent was used, and as a control, an experimental group composed only of DPPH in distilled water or solvent without the sample was used. Further, vitamin C was used as a positive control.

[2] = Moisturizing effect: transepidermal water loss (Tewameter TM210); type: in vivo, human subjects; set-up: key: −: No effect; +: Weak effect; ++: Moderate effect; +++: Strong effect; ++++: Very strong effect
Experimental: The transepidermal water loss was measured using a Tewameter TM210 (Germany). The measurement was performed twice, before the treatment and at 2 weeks after the treatment, and the results were statistically compared. The measurement was performed in a temperature/humidity controlled room (no air flow, no light, at a temperature of 22° C. and relative humidity of 40%). The measurement was performed in the abdomen of thirty subjects.

[3] = tested on: NF-kB luciferase activity; experiment: Anti-inflammatory effect: inhibition test of NF-kB luciferase activity (TNF-alpha treated fibroblasts); type: cell-based, Human fibroblasts and mouse fibroblasts, NIH3T3; set-up: key: −: No effect; +: Weak effect; ++: Moderate effect; +++: Strong effect; ++++: Very strong effect
Experimental: The anti-inflammatory effect was determined by the inhibition test of NF-kB luciferase activity. Human fibroblasts and mouse fibroblasts, NIH3T3 were transfected with NF-kB reporter DNA using SuperFect to induce transformation. At 24 hrs after transformation, the samples were treated with TNF-alpha (10 ng/ml). After 16 hrs, the cells were collected, and luminescence measurements were made […] using a Luminometer (Berthold, Germany).

[4] = tested on: Human keratinocytes; experiment: Wound-healing effect: cell migration assay; type: cell-based; set-up: key: −: No effect; +: Weak effect; ++: Moderate effect; +++: Strong effect; ++++: Very strong effect
Experimental: The wound-healing effect was determined by a cell migration assay. Human keratinocytes were confluently cultured in keratinocyte-SFM media and then, treated with […] mitomycin C (Sigma Chemical) to inhibit cell growth for the measurement of cell migration. The confluent cell monolayer was scratched using a yellow pipette tip to create a cell-free region and then, the cell debris was washed with PBS. After the treatment, the samples were cultured in keratinocyte-SFM media for 48 hrs to observe the effect on cell migration (Cecile A et. al., Molecular Biology of the Cell, 2002; 13: 3845-3858).

Which results are given for O=C1O[C@H]([C@@H](O)CO)C(O)=C1O [Ascorbic acid]?
Antioxidant effect [1]: +; Moisturizing effect [2]: −; Anti-inflammatory effect [3]: +; Wound-healing effect [4]: ++

Which Antioxidant effect [1] does the source give for O=c1cc(-c2ccccc2)oc2cc(O)c(O)c(O)c12 [Baicalein] here?
The Antioxidant effect was “++”.

And the Moisturizing effect [2]?
The Moisturizing effect was “++”.

And the Anti-inflammatory effect [3]?
The Anti-inflammatory effect was “++”.

And the Wound-healing effect [4]?
Its Wound-healing effect is “++”.

Which Antioxidant effect [1] does the source give for O=C(O)/C=C/c1ccc(O)c(O)c1 [Caffeic acid] here?
The Antioxidant effect was “+”.

What about the Moisturizing effect [2] of the same compound?
The Moisturizing effect was “+”.

What about the Anti-inflammatory effect [3] of the same compound?
The Anti-inflammatory effect was “+”.

What about the Wound-healing effect [4] of the same compound?
The Wound-healing effect was “+”.

Which results are given for CCc1ccc(C)c2ccc(C)c-2c1 [Chamazulene]?
Antioxidant effect [1]: ++; Moisturizing effect [2]: ++; Anti-inflammatory effect [3]: ++; Wound-healing effect [4]: ++

What does the source list for COC1=C(OC)C(=O)C(C/C=C(\C)CC/C=C(\C)CC/C=C(\C)CC/C=C(\C)CC/C=C(\C)CC/C=C(\C)CC/C=C(\C)CC/C=C(\C)CC/C=C(\C)CCC=C(C)C)=C(C)C1=O [Coenzyme Q10]?
Antioxidant effect [1]: +; Moisturizing effect [2]: +; Anti-inflammatory effect [3]: −; Wound-healing effect [4]: +

For O=c1ccc2ccccc2o1 [Coumarin], which Antioxidant effect [1] is on record?
Its Antioxidant effect is “+”.

What about the Moisturizing effect [2] of the same compound?
Its Moisturizing effect is “−”.

And the Anti-inflammatory effect [3]?
The Anti-inflammatory effect was “++”.

And the Wound-healing effect [4]?
The Wound-healing effect was “+”.

With C[C@@H]1CC[C@@]2(OC1)O[C@H]1C[C@H]3[C@@H]4CC=C5C[C@@H](O)CC[C@]5(C)[C@H]4CC[C@]3(C)[C@H]1[C@@H]2C [Diosgenin] as the compound, how does the Antioxidant effect [1] read?
Its Antioxidant effect is “−”.

And the Moisturizing effect [2]?
Its Moisturizing effect is “+”.

And the Anti-inflammatory effect [3]?
The Anti-inflammatory effect was “+”.

And the Wound-healing effect [4]?
Its Wound-healing effect is “++”.

Which results are given for CCCCCCCC/C=C/CCCCCCCC(=O)O [Elaidic acid]?
Antioxidant effect [1]: +; Moisturizing effect [2]: −; Anti-inflammatory effect [3]: +; Wound-healing effect [4]: +

With Cc1cc(O)c2c(c1)C(=O)c1cc(O)cc(O)c1C2=O [Emodin] as the compound, how does the Antioxidant effect [1] read?
The Antioxidant effect was “++”.

And the Moisturizing effect [2]?
Its Moisturizing effect is “++”.

And the Anti-inflammatory effect [3]?
Its Anti-inflammatory effect is “++”.

What about the Wound-healing effect [4] of the same compound?
Its Wound-healing effect is “++”.

For CC1=C(O)C(=O)C(C)O1 (stereo not shown) [Furaneol], which Moisturizing effect [2] is on record?
Its Moisturizing effect is “+”.

And the Anti-inflammatory effect [3]?
The Anti-inflammatory effect was “+”.

What about the Wound-healing effect [4] of the same compound?
The Wound-healing effect was “+”.

For O=C(O)c1cc(O)c(O)c(O)c1 [Garlic acid], which Antioxidant effect [1] is on record?
The Antioxidant effect was “+”.

And the Moisturizing effect [2]?
Its Moisturizing effect is “−”.

And the Anti-inflammatory effect [3]?
The Anti-inflammatory effect was “+”.

And the Wound-healing effect [4]?
The Wound-healing effect was “+”.

With CC(C)=CCC/C(C)=C/CO [Geraniol] as the compound, how does the Moisturizing effect [2] read?
Its Moisturizing effect is “−”.

And the Anti-inflammatory effect [3]?
The Anti-inflammatory effect was “++”.

And the Wound-healing effect [4]?
Its Wound-healing effect is “+”.

With CC(C)=CCC[C@](C)(O[C@@H]1O[C@H](CO[C@@H]2O[C@H](CO)[C@@H](O)[C@H](O)[C@H]2O)[C@@H](O)[C@H](O)[C@H]1O)[C@H]1CC[C@]2(C)[C@@H]1[C@H](O)C[C@@H]1[C@@]3(C)CC[C@H](O[C@@H]4O[C@H](CO)[C@@H](O)[C@H](O)[C@H]4O[C@@H]4O[C@H](CO)[C@@H](O)[C@H](O)[C@H]4O)C(C)(C)[C@@H]3CC[C@]12C [Ginsenoside Rb1] as the compound, how does the Antioxidant effect [1] read?
Its Antioxidant effect is “−”.

What about the Moisturizing effect [2] of the same compound?
The Moisturizing effect was “+”.

And the Anti-inflammatory effect [3]?
The Anti-inflammatory effect was “+”.

What about the Wound-healing effect [4] of the same compound?
The Wound-healing effect was “+”.

Which results are given for CC1(C)[C@@H](O[C@H]2O[C@H](C(=O)O)[C@@H](O)[C@H](O)[C@H]2O[C@@H]2O[C@H](C(=O)O)[C@@H](O)[C@H](O)[C@H]2O)CC[C@]2(C)[C@H]3C(=O)C=C4[C@@H]5C[C@@](C)(C(=O)O)CC[C@]5(C)CC[C@@]4(C)[C@]3(C)CC[C@@H]12 [Glycyrrhizin]?
Antioxidant effect [1]: ++; Moisturizing effect [2]: ++; Anti-inflammatory effect [3]: ++; Wound-healing effect [4]: ++

What does the source list for C=CCc1ccc(O)c(-c2ccc(O)c(CC=C)c2)c1 [Honokiol]?
Antioxidant effect [1]: +; Moisturizing effect [2]: −; Anti-inflammatory effect [3]: +; Wound-healing effect [4]: ++

For OCCc1ccc(O)c(O)c1 [Hydroxytyrosol], which Moisturizing effect [2] is on record?
The Moisturizing effect was “+”.

And the Anti-inflammatory effect [3]?
Its Anti-inflammatory effect is “+”.

And the Wound-healing effect [4]?
The Wound-healing effect was “+”.

Which results are given for OCc1c[nH]c2ccccc12 [Indole-3-carbinol]?
Antioxidant effect [1]: +; Moisturizing effect [2]: −; Anti-inflammatory effect [3]: +; Wound-healing effect [4]: +

Which results are given for CC/C=C\C/C=C\C/C=C\CCCCCCCC(=O)O [Linolenic acid]?
Moisturizing effect [2]: ++; Anti-inflammatory effect [3]: ++; Wound-healing effect [4]: ++

With C[C@H]1[C@H](C)CC[C@]2(C(=O)O)CC[C@]3(C)C(=CC[C@@H]4[C@@]5(C)C[C@@H](O)[C@H](O)[C@@](C)(CO)[C@@H]5[C@H](O)C[C@]43C)[C@H]12 [Madecassic acid] as the compound, how does the Moisturizing effect [2] read?
The Moisturizing effect was “++”.

And the Anti-inflammatory effect [3]?
The Anti-inflammatory effect was “++”.

And the Wound-healing effect [4]?
Its Wound-healing effect is “++”.

Which results are given for C=CCc1ccc(O)c(-c2cc(CC=C)ccc2O)c1 [Magnolol]?
Antioxidant effect [1]: +; Moisturizing effect [2]: −; Anti-inflammatory effect [3]: +; Wound-healing effect [4]: +

What does the source list for CCCCCCCC/C=C\CCCCCCCC(=O)O [Oleic acid]?
Antioxidant effect [1]: +; Moisturizing effect [2]: +; Anti-inflammatory effect [3]: +; Wound-healing effect [4]: +

With O=P(O)(O)O[C@H]1[C@H](OP(=O)(O)O)[C@@H](OP(=O)(O)O)[C@H](OP(=O)(O)O)[C@@H](OP(=O)(O)O)[C@H]1OP(=O)(O)O [Phytic acid] as the compound, how does the Antioxidant effect [1] read?
Its Antioxidant effect is “+”.

What about the Moisturizing effect [2] of the same compound?
The Moisturizing effect was “−”.

What about the Anti-inflammatory effect [3] of the same compound?
The Anti-inflammatory effect was “+”.

What about the Wound-healing effect [4] of the same compound?
The Wound-healing effect was “++”.

For Oc1cc(O)cc(/C=C/c2ccccc2)c1 [Pinosylvin], which Antioxidant effect [1] is on record?
The Antioxidant effect was “+”.

What about the Moisturizing effect [2] of the same compound?
The Moisturizing effect was “−”.

What about the Anti-inflammatory effect [3] of the same compound?
The Anti-inflammatory effect was “+”.

And the Wound-healing effect [4]?
The Wound-healing effect was “++”.

Which Antioxidant effect [1] does the source give for O=c1c(O)c(-c2ccc(O)c(O)c2)oc2cc(O)cc(O)c12 [Quercetin] here?
The Antioxidant effect was “++”.

What about the Moisturizing effect [2] of the same compound?
Its Moisturizing effect is “++”.

What about the Anti-inflammatory effect [3] of the same compound?
The Anti-inflammatory effect was “++”.

And the Wound-healing effect [4]?
The Wound-healing effect was “++”.

Which results are given for CC1=C(/C=C/C(C)=C/C=C/C(C)=C/CO)C(C)(C)CCC1 [Retinol]?
Antioxidant effect [1]: +; Moisturizing effect [2]: −; Anti-inflammatory effect [3]: +; Wound-healing effect [4]: +

Which Antioxidant effect [1] does the source give for O=C(/C=C/c1ccc(O)c(O)c1)O[C@H](Cc1ccc(O)c(O)c1)C(=O)O [Rosmarinic acid] here?
The Antioxidant effect was “++”.

And the Moisturizing effect [2]?
Its Moisturizing effect is “++”.

What about the Anti-inflammatory effect [3] of the same compound?
Its Anti-inflammatory effect is “++”.

And the Wound-healing effect [4]?
The Wound-healing effect was “++”.

For C[C@@H]1O[C@@H](OC[C@H]2O[C@@H](Oc3c(-c4ccc(O)c(O)c4)oc4cc(O)cc(O)c4c3=O)[C@H](O)[C@@H](O)[C@@H]2O)[C@H](O)[C@H](O)[C@H]1O [Rutin], which Moisturizing effect [2] is on record?
The Moisturizing effect was “+”.

And the Anti-inflammatory effect [3]?
The Anti-inflammatory effect was “+”.

And the Wound-healing effect [4]?
The Wound-healing effect was “+”.

With Cc1c(C)c2c(c(C)c1O)CC[C@@](C)(CCC[C@H](C)CCC[C@H](C)CCCC(C)C)O2 [alpha-Tocopherol] as the compound, how does the Antioxidant effect [1] read?
The Antioxidant effect was “+”.

And the Anti-inflammatory effect [3]?
The Anti-inflammatory effect was “+”.

What about the Wound-healing effect [4] of the same compound?
Its Wound-healing effect is “++”.

Which Antioxidant effect [1] does the source give for O=C(O)CCCCC1CCSS1 (stereo not drawn) [alpha-lipoic acid] here?
The Antioxidant effect was “+”.

What about the Moisturizing effect [2] of the same compound?
Its Moisturizing effect is “−”.

And the Anti-inflammatory effect [3]?
Its Anti-inflammatory effect is “+”.

And the Wound-healing effect [4]?
The Wound-healing effect was “++”.
